How the values were obtained:
[1] = tested on: A375 (malignant melanoma) cell line; test: CellTiter-Glo luminescent cell viability assay, A375; type: cell-based, human; conditions: Homo sapiens, A-375, 72 h; for viability at 4 µM: A375, compound at 4 μM; for viability at 10 µM: A375, compound at 10 μM
How it was run: (§1)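 Adherent lines plated overnight, MOLM-14 (suspension) 1 h before dosing, in medium with 10% FBS at 37 °C, 5% CO2. Compounds added at varying concentrations for 72 h; CellTiter-Glo luminescence read, EC50 as dose reducing signal to 50% of diluent-treated cells, at least duplicate points.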

[2] = tested on: 786-O (renal adenocarcinoma) cell line; test: CellTiter-Glo luminescent cell viability assay, 786-O; type: cell-based, human; conditions: Homo sapiens, 786-0; for viability at 4 µM / viability at 10 µM: 786-O, 72 h; for viability at 4 µM: compound at 4 μM; for viability at 10 µM: compound at 10 μM
How it was run: as §1

[3] = tested on: HCT-116 (colorectal carcinoma) cell line; test: CellTiter-Glo luminescent cell viability assay, HCT-116; type: cell-based, human; conditions: Homo sapiens; for viability at 4 µM: HCT-116, compound at 4 μM; for viability at 4 µM / viability at 10 µM: 72 h; for viability at 10 µM: HCT-116, compound at 10 μM
How it was run: as §1

[4] = tested on: PANC-1 (prancreatic carcinoma) cell line; test: CellTiter-Glo luminescent cell viability assay, PANC-1; type: cell-based; conditions: Homo sapiens, 72 h, % of signal of diluent-treated cultures; for viability at 4 µM: PANC-1, 4 μM; for viability at 10 µM: PANC-1, 10 μM
How it was run: (§2)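 Luminescent signal, normalised to diluent-treated cultures, defines % viability; EC50 is the concentration lowering it to 50%. Cells had been exposed to compound for 72 h at 37 °C in medium with 10% FBS, at a constant H2O or DMSO percentage.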

[5] = tested on: Huh7 (hepatocellular carcinoma) cell line; test: CellTiter-Glo luminescent cell viability assay, Huh7; type: cell-based, human; conditions: Homo sapiens, Huh-7; for viability at 4 µM: Huh7, compound at 4 μM; for viability at 4 µM / viability at 10 µM: 72 h; for viability at 10 µM: Huh7, compound at 10 μM
How it was run: as §2

[6] = tested on: MOLM-14 (acute myeloid leukemia) cell line; test: CellTiter-Glo luminescent cell viability assay, MOLM-14; type: cell-based, human; conditions: Homo sapiens; for viability at 4 µM: MOLM-14, compound at 4 μM; for viability at 4 µM / viability at 10 µM: 72 h; for viability at 10 µM: MOLM-14, compound at 10 μM
How it was run: as §2

[7] = tested on: HepG2 (hepatocellular carcinoma) cell line; test: CellTiter-Glo luminescent cell viability assay, HepG2; type: cell-based, human; conditions: Homo sapiens; for viability at 4 µM / viability at 10 µM: HepG2, HepG, 72 h; for viability at 4 µM: compound at 4 μM; for viability at 10 µM: compound at 10 μM
How it was run: as §2

SMILES | viability at 4 µM [1] [%] | viability at 10 µM [1] [%] | EC50 ([2]; 786-O cell line, 72 h incubation, CellTiter-Glo, read-out: EC50, growth inhibition of 786-O) [µM] | viability at 4 µM [2] [%] | viability at 10 µM [2] [%] | viability at 4 µM [3] [%] | viability at 10 µM [3] [%] | EC50 ([3]; HCT-116 cell line, 72 h incubation, CellTiter-Glo, read-out: EC50, growth inhibition of HCT-116) [µM] | viability at 4 µM [4] [%] | viability at 10 µM [4] [%] | viability at 4 µM [5] [%] | viability at 10 µM [5] [%] | EC50 ([5]; Huh7 cell line, 72 h incubation, CellTiter-Glo, read-out: EC50, growth inhibition of Huh7) [µM] | viability at 4 µM [6] [%] | viability at 10 µM [6] [%] | EC50 ([6]; MOLM-14 cell line, 72 h incubation, CellTiter-Glo, read-out: EC50, growth inhibition of MOLM-14) [µM] | viability at 4 µM [7] [%] | viability at 10 µM [7] [%] | EC50 ([7]; HepG2 cell line, 72 h incubation, CellTiter-Glo, read-out: EC50, growth inhibition of HepG2) [µM]
CC(C)(C)NC1CCN(c2c(C#N)c(Nc3ccc(F)c(F)c3)nc3ccccc23)CC1 [Compound 3264CN, 2-(3,4-difluorophenylamino)-3-cyano-4-[4-(tert-butylamino)piperidin-1-yl]quinoline] | 12.8 | 0.4 | 0.5 to 5 | 12.7 | 0.6 | 0.3 | 0.3 | 0.5 to 5 | 78.1 | 2.4 | 11.7 | 0.5 | 0.5 to 5 | 0.4 | 0.5 | 0.5 to 5 | 0.5 | 0.3 | 0.5 to 5
Cn1cc(Nc2nc3ccccc3c(N3CCC(NC(C)(C)C)CC3)c2C#N)cn1 [Compound 3268CN, 2-[(1-methyl-1H-pyrazol-4-yl)amino]-3-cyano-4-[4-(tert-butylamino)piperidin-1-yl]quinoline] | 61.8 | 11.3 |  | 109 | 80.1 | 73.7 | 22.6 |  | 95.8 | 43.6 | 94 | 64.8 |  | 91 | 77.6 |  | 68.6 | 56 | 
Cc1nnc(Nc2nc3ccccc3c(N3CCC(NC(C)(C)C)CC3)c2C#N)o1 [Compound 3272CN, 2-[(5-methyl-1,3,4-oxadiazol-2-yl)amino]-3-cyano-4-[4-(tert-butylamino)piperidin-1-yl]quinoline] | 62.3 | 21.2 |  | 79 | 48.9 | 13.9 | 5 |  | 84.7 | 65.3 | 92.6 | 67.2 |  | 82.3 | 20.7 |  | 97.7 | 61.2 | 
Cc1nc(Nc2nc3ccccc3c(N3CCC(NC(C)(C)C)CC3)c2C#N)n(C)n1 [Compound 3274CN, 2-[(1,3-dimethyl-1H-1,2,4-triazol-5-yl)amino]-3-cyano-4-[4-(tert-butylamino)piperidin-1-yl]quinoline] | 84.7 | 69.2 |  | 106 | 83.4 | 73.3 | 49.5 |  | 96.7 | 89.9 | 96.2 | 75 |  | 91.3 | 78.2 |  | 63.4 | 55.2 | 
CC(C)(C)NC1CCN(c2c(C#N)c(Nc3ccccn3)nc3ccccc23)CC1 [Compound 3278CN, 2-(pyridin-2-ylamino)-3-cyano-4-[4-(tert-butylamino)piperidin-1-yl]quinoline] | 90.6 | 45.2 |  | 90.2 | 68.2 | 85.7 | 7.2 |  | 102 | 84.2 | 95 | 51 |  | 96.1 | 88.6 |  | 87.1 | 53.2 | 

Reference: US10577362B2, “Substituted 2, 4-diamino-quinoline derivatives for use in the treatment of proliferative diseases” (GENOSCIENCE PHARMA, priority 2016, dated 2020)
